# Laboratory results published in publication PMC11234460, “In Silico Discovery of Stapled Peptide Inhibitor Targeting the Nur77‐PPARγ Interaction and Its Anti‐Breast‐Cancer Efficacy” (Advanced Science, 2024).
# Where a SMILES comes first, the peptide text is derived from it. Bridges are numbered along the chain shown (N, C = ends). [ ]: non-standard residue; d: D form. S5 = C=CCCC[C@](C)(N)C(=O)O
# What was measured:
# [1] = test system: MDA-MB-231-GFP tumor tissue; assay: Transcriptome analysis of xenograft tumor tissue; type: in vivo, mouse; conditions: 10 mg group
# Procedure: To establish the bone metastasis tumor model, 1×10^5 cells were injected into the left ventricle of each mouse (7–8 weeks old), and surgery was monitored using a cardiac ultrasound instrument. The mice were randomly divided into three groups and treated with PBS (control group, n = 6), 5 mg kg^−1 ST‐CY14 (n = 6), and 10 mg kg^−1 ST‐CY14 (n = 6) Tumor cell metastasis was monitored using an in vivo imaging instrument (IVIS Spectrum, PerkinElmer, USA). by intraperitoneal injection of 20 mg kg^−1 D‐luciferin. The mice were treated with ST‐CY14 via intravenous injection using a 100 µL PBS solution every 2 days starting on the designated day after tumor cell injection. Bone tissue with MDA‐BoM‐1833 cell metastasis was obtained and stained for TRAP. The mice sera were collected and analyzed for BSP and β‐CTx levels using ELISA (Lengton, BPE10823, BPE10438). For the orthotopic xenograft tumor model, 3×10^6 cells were injected into the fourth pair of breast pads on the left side of the mouse (4–5 weeks old). The mice were treated with ST‐CY14 every two days once the tumor volume reached 30–50 mm^3, with the same groups as in the bone metastasis tumor model. The tumors were collected and stained for H&E, Ki‐67, and TUNEL assays, which were conducted by Wuhan Servicebio Technology Co., Ltd. Major organs (heart, liver, spleen, lung, and kidney) were also collected for H&E analysis by Wuhan Servicebio Technology Co., Ltd. The Transcriptome and LC/MS targeted lipid metabolome were sequenced by OE Biotech, Inc., Shanghai, China. To evaluate the efficacy of Csn‐B in inhibiting breast cancer bone metastasis, an animal model was established as described above. The mice were randomly divided into three groups and treated with PBS (control group, n = 6), 10 mg kg^−1 ST‐CY14 (n = 6) in 100 µL PBS solution, and 5 mg kg^−1 ST‐CY14 (n = 6) in a 100 µL mixed solution (5% DMSO, 20% PEG 400, 5% Tween 80, and 70% normal saline) via intravenous injection every 2 days starting on the designated day after tumor cell injection.
# Nur77-LBD = molecular target: T1, Nur77-LBD (Homo sapiens, UniProt P22736); assay: Surface plasmon resonance (SPR), Biacore T200; type: binding; conditions: read-out: ka (SPR)
# T1 construct: The LBD fragment of human Nur77 (residues 351–598), tagged with an N‐terminal His6‐tag; His6 (N); made in house; host or cells: Escherichia coli BL21(DE3)
# T1 sequence (P22736 351-598): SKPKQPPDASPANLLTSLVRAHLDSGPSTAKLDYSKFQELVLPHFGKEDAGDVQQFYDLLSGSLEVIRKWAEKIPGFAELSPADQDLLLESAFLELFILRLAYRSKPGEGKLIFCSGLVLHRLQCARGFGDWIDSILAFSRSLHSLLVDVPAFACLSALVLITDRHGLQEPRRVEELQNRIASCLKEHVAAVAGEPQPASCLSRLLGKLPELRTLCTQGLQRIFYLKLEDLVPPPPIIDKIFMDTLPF
# Procedure: ST‐CY14 with Nur77‐LBD was detected by SPR using the Biacore T200 system at 25 °C. Recombinant human Nur77‐LBD protein was immobilized on an activated carboxymethylated 5 sensor chip (GE Healthcare) using the amine coupling method. Gradient concentrations of […] were injected at a flow rate of 30 µL min^−1 in a running buffer (1% DMSO in PBS). The results were analyzed with Biacore evaluation software (T200 version 2.0). The data were fitted to the 1:1 Langmuir binding model, and kinetic parameters were derived.
# MCF7 cells = assay: Transwell cell migration analysis; type: cell-based, human; conditions: MCF7, 12 h
# Procedure: 600 µL DMEM complete medium was added to the lower chamber of the Transwell. Next, 2×10^4 cells in 100 µL DMEM medium, containing 1, 2, 5, 10, or 2 × 10^−5 M peptides, were added to the upper chamber of the Transwell. The cells were incubated for 12 h at 37 °C and 5% CO2. After the incubation period, the medium was discarded, and the chamber was washed with PBS. The cells were then fixed with 4% paraformaldehyde for 20 min. The upper chamber was subsequently soaked in crystal violet for 20 min, washed with PBS, and observed under a microscope for analysis.
smiles,measurement,setting,value
C[C@@H](O)[C@@H]1NC(=O)[C@H](CCCNC(=N)N)NC(=O)[C@H](CCCNC(=N)N)NC(=O)[C@@](C)(NC(=O)[C@H](Cc2ccccc2)NC(=O)CNC(=O)[C@H](CCCCN)NC(=O)[C@H](CS)NC(=O)CNC(=O)[C@H](CCC(=O)O)NC(=O)[C@@H](N)CS)CCCC=CCCC[C@@](C)(C(=O)N[C@@H](CCCNC(=N)N)C(=O)N[C@@H](Cc2ccc(O)cc2)C(=O)N[C@@H](Cc2ccc(O)cc2)C(=O)NCC(=O)N[C@@H](CCCNC(=N)N)C(=O)N[C@@H](CCCCN)C(=O)N[C@@H](CCCCN)C(=O)N[C@@H](CCCNC(=N)N)C(=O)N[C@@H](CCCNC(=N)N)C(=O)N[C@@H](CCC(N)=O)C(=O)N[C@@H](CCCNC(=N)N)C(=O)N[C@@H](CCCNC(=N)N)C(=O)N[C@@H](CCCNC(=N)N)C(N)=O)NC1=O [ST-CY14] (H-CEGCKGF[S5]RRT[S5]RYYGRKKRRQRRR-NH2; staple 8-12),AGT expression in tumor tissue (transcriptome),[1]; sample 1,0.07902
same,ANGPTL4 expression in tumor tissue (transcriptome),[1]; sample 1,3.636
same,CD36 expression in tumor tissue (transcriptome),[1]; sample 1,0
same,CD74 expression in tumor tissue (transcriptome),[1]; sample 1,0.3461
same,CNR1 expression in tumor tissue (transcriptome),[1]; sample 1,0.02158
same,CYP3A5 expression in tumor tissue (transcriptome),[1]; sample 1,0.3686
same,FABP4 expression in tumor tissue (transcriptome),[1]; sample 1,0.03159
same,INSL5 expression in tumor tissue (transcriptome),[1]; sample 1,0
same,ITGAL expression in tumor tissue (transcriptome),[1]; sample 1,0.005294
same,OAS1 expression in tumor tissue (transcriptome),[1]; sample 1,0.1526
same,OLAH expression in tumor tissue (transcriptome),[1]; sample 1,0.7465
same,PLIN1 expression in tumor tissue (transcriptome),[1]; sample 1,0.1271
same,POLR2J3 expression in tumor tissue (transcriptome),[1]; sample 1,0.1542
same,PTPRC expression in tumor tissue (transcriptome),[1]; sample 1,0.09088
same,PYY expression in tumor tissue (transcriptome),[1]; sample 1,0.3061
same,RNF152 expression in tumor tissue (transcriptome),[1]; sample 1,0.2243
same,SLX1B expression in tumor tissue (transcriptome),[1]; sample 1,0.4199
same,UTS2B expression in tumor tissue (transcriptome),[1]; sample 1,0.2634
same,VAMP7 expression in tumor tissue (transcriptome),[1]; sample 1,0.394
same,ZNF404 expression in tumor tissue (transcriptome),[1]; sample 1,0.5136
same,ZNF429 expression in tumor tissue (transcriptome),[1]; sample 1,0.01399
same,AGT expression in tumor tissue (transcriptome),[1]; sample 2,0.282
same,ANGPTL4 expression in tumor tissue (transcriptome),[1]; sample 2,6.216
same,CD36 expression in tumor tissue (transcriptome),[1]; sample 2,0.00582
same,CD74 expression in tumor tissue (transcriptome),[1]; sample 2,0.2008
same,CNR1 expression in tumor tissue (transcriptome),[1]; sample 2,0.02567
same,CYP3A5 expression in tumor tissue (transcriptome),[1]; sample 2,0.2054
same,FABP4 expression in tumor tissue (transcriptome),[1]; sample 2,0
same,INSL5 expression in tumor tissue (transcriptome),[1]; sample 2,1.442
same,ITGAL expression in tumor tissue (transcriptome),[1]; sample 2,0
same,OAS1 expression in tumor tissue (transcriptome),[1]; sample 2,0.4448
same,OLAH expression in tumor tissue (transcriptome),[1]; sample 2,0.9577
same,PLIN1 expression in tumor tissue (transcriptome),[1]; sample 2,0.01163
same,POLR2J3 expression in tumor tissue (transcriptome),[1]; sample 2,0.3872
same,PTPRC expression in tumor tissue (transcriptome),[1]; sample 2,0.01081
same,PYY expression in tumor tissue (transcriptome),[1]; sample 2,1.722
same,RNF152 expression in tumor tissue (transcriptome),[1]; sample 2,0.1875
same,SLX1B expression in tumor tissue (transcriptome),[1]; sample 2,0.5583
same,UTS2B expression in tumor tissue (transcriptome),[1]; sample 2,0.2673
same,VAMP7 expression in tumor tissue (transcriptome),[1]; sample 2,0.4688
same,ZNF404 expression in tumor tissue (transcriptome),[1]; sample 2,0.685
same,ZNF429 expression in tumor tissue (transcriptome),[1]; sample 2,0.06657
same,AGT expression in tumor tissue (transcriptome),[1]; sample 3,0.02516
same,ANGPTL4 expression in tumor tissue (transcriptome),[1]; sample 3,3.683
same,CD36 expression in tumor tissue (transcriptome),[1]; sample 3,0.004672
same,CD74 expression in tumor tissue (transcriptome),[1]; sample 3,0.1451
same,CNR1 expression in tumor tissue (transcriptome),[1]; sample 3,0.07831
same,CYP3A5 expression in tumor tissue (transcriptome),[1]; sample 3,0.312
same,FABP4 expression in tumor tissue (transcriptome),[1]; sample 3,0.06034
same,INSL5 expression in tumor tissue (transcriptome),[1]; sample 3,0.1867
same,ITGAL expression in tumor tissue (transcriptome),[1]; sample 3,0
same,OAS1 expression in tumor tissue (transcriptome),[1]; sample 3,0.2478
same,OLAH expression in tumor tissue (transcriptome),[1]; sample 3,1.048
same,PLIN1 expression in tumor tissue (transcriptome),[1]; sample 3,0
same,POLR2J3 expression in tumor tissue (transcriptome),[1]; sample 3,0.1963
same,PTPRC expression in tumor tissue (transcriptome),[1]; sample 3,0.04774
same,PYY expression in tumor tissue (transcriptome),[1]; sample 3,0.5582
same,RNF152 expression in tumor tissue (transcriptome),[1]; sample 3,0.2258
same,SLX1B expression in tumor tissue (transcriptome),[1]; sample 3,0.5662
same,UTS2B expression in tumor tissue (transcriptome),[1]; sample 3,0.1702
same,VAMP7 expression in tumor tissue (transcriptome),[1]; sample 3,0.3548
same,ZNF404 expression in tumor tissue (transcriptome),[1]; sample 3,0.3567
same,ZNF429 expression in tumor tissue (transcriptome),[1]; sample 3,0.0501
same,kon,Nur77-LBD,1.6e+06 M⁻¹ s⁻¹
same,Transwell transmigration,MCF7 cells,inhibited the transmigration
